Reference: PubChem BioAssay (NCI)
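How tested: cells in 96-well plates exposed to compound for 48 hours at five concentrations. TGI is the concentration that stops growth completely.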

Key:
Assay in all cases: inhibition of tumour cell growth, NCI panel, 48 h
[1] = system: CAKI-1 renal
[2] = system: HL-60(TB) leukemia
[3] = system: UO-31 renal
[4] = system: SF-539 CNS
[5] = system: SK-OV-3 ovarian
[6] = system: MALME-3M melanoma
[7] = system: KM12 colon
[8] = system: MDA-MB-231 breast
[9] = system: MDA-MB-435
[10] = system: NCI/ADR-RES ovarian
[11] = system: HCT-116 colon
[12] = system: LOX IMVI melanoma
[13] = system: UACC-257 melanoma
[14] = system: SNB-75 CNS
[15] = system: SK-MEL-28 melanoma
[16] = system: HS 578T breast
[17] = system: TK-10 renal
[18] = system: NCI-H226 lung
[19] = system: IGROV1 ovarian
[20] = system: M14 melanoma
[21] = system: MOLT-4 leukemia
[22] = system: OVCAR-5 ovarian
[23] = system: RXF 393 renal
[24] = system: SR leukemia
[25] = system: A498 renal
[26] = system: OVCAR-3 ovarian
[27] = system: K-562 leukemia
[28] = system: COLO 205 colon
[29] = system: DU-145 prostate
[30] = system: RPMI-8226 leukemia
[31] = system: OVCAR-8 ovarian
[32] = system: ACHN renal
[33] = system: SN12C renal
[34] = system: U251 CNS
[35] = system: MDA-N
[36] = system: HOP-92 NSCLC
[37] = system: NCI-H23 lung
[38] = system: HT29 colon
[39] = system: MCF7 breast
[40] = system: A549 NSCLC
[41] = system: BT-549 breast
[42] = system: SW-620 colon
[43] = system: PC-3 prostate
[44] = system: SK-MEL-5 melanoma
[45] = system: T-47D breast
[46] = system: HOP-62 NSCLC
[47] = system: SF-268 CNS
[48] = system: NCI-H522 lung
[49] = system: 786-0 renal
[50] = system: OVCAR-4 ovarian
[51] = system: SNB-19 CNS
[52] = system: SF-295 CNS
[53] = system: HCT-15 colon
[54] = system: CCRF-CEM leukemia
[55] = system: SK-MEL-2 melanoma
[56] = system: EKVX NSCLC
[57] = system: NCI-H460 lung
[58] = system: UACC-62 melanoma
[59] = system: HCC-2998 colon

Structure (SMILES): COc1c(Cl)ccc(Cl)c1-c1nnc(-c2c(Cl)c(Cl)c(Cl)c(Cl)c2-c2nc3ccc(C(=O)c4ccccc4)cc3[nH]2)o1
- TGI [1]: > 100 µM
- TGI [2]: > 100 µM
- TGI [3]: > 100 µM
- TGI [4]: 54 µM
- TGI [5]: > 100 µM
- TGI [6]: > 100 µM
- TGI [7]: > 100 µM
- TGI [8]: > 100 µM
- TGI [9]: 68 µM
- TGI [10]: > 100 µM
- TGI [11]: > 100 µM
- TGI [12]: > 100 µM
- TGI [13]: > 100 µM
- TGI [14]: > 100 µM
- TGI [15]: > 100 µM
- TGI [16]: > 100 µM
- TGI [17]: > 100 µM
- TGI [18]: 78.5 µM
- TGI [19]: > 100 µM
- TGI [20]: > 100 µM
- TGI [21]: > 100 µM
- TGI [22]: > 100 µM
- TGI [23]: 65.4 µM
- TGI [24]: > 100 µM
- TGI [25]: 85.5 µM
- TGI [26]: > 100 µM
- TGI [27]: > 100 µM
- TGI [28]: 78.2 µM
- TGI [29]: > 100 µM
- TGI [30]: 87.4 µM
- TGI [31]: > 100 µM
- TGI [32]: > 100 µM
- TGI [33]: > 100 µM
- TGI [34]: > 100 µM
- TGI [35]: 46.4 µM
- TGI [36]: > 100 µM
- TGI [37]: > 100 µM
- TGI [38]: > 100 µM
- TGI [39]: > 100 µM
- TGI [40]: > 100 µM
- TGI [41]: > 100 µM
- TGI [42]: > 100 µM
- TGI [43]: > 100 µM
- TGI [44]: 36 µM
- TGI [45]: > 100 µM
- TGI [46]: > 100 µM
- TGI [47]: > 100 µM
- TGI [48]: > 100 µM
- TGI [49]: > 100 µM
- TGI [50]: > 100 µM
- TGI [51]: > 100 µM
- TGI [52]: 85.7 µM
- TGI [53]: > 100 µM
- TGI [54]: 91.7 µM
- TGI [55]: > 100 µM
- TGI [56]: > 100 µM

Structure (SMILES): COc1ccc2c(c1)Cc1cc(N=[N+]([O-])c3ccc4c(c3)Cc3cc(OC)ccc3-4)ccc1-2
- TGI [1]: > 100 µM
- TGI [2]: > 100 µM
- TGI [3]: > 100 µM
- TGI [4]: 28.5 µM
- TGI [5]: > 100 µM
- TGI [6]: > 100 µM
- TGI [7]: > 100 µM
- TGI [8]: > 100 µM
- TGI [9]: > 100 µM
- TGI [10]: > 100 µM
- TGI [11]: > 100 µM
- TGI [12]: 97.7 µM
- TGI [57]: > 100 µM
- TGI [13]: 52.7 µM
- TGI [14]: > 100 µM
- TGI [58]: 85.4 µM
- TGI [15]: > 100 µM
- TGI [16]: > 100 µM
- TGI [17]: > 100 µM
- TGI [18]: > 100 µM
- TGI [19]: 55.2 µM
- TGI [20]: > 100 µM
- TGI [21]: > 100 µM
- TGI [22]: > 100 µM
- TGI [23]: > 100 µM
- TGI [24]: 41.5 µM
- TGI [25]: 95 µM
- TGI [26]: > 100 µM
- TGI [27]: > 100 µM
- TGI [28]: 28.6 µM
- TGI [29]: > 100 µM
- TGI [31]: > 100 µM
- TGI [32]: > 100 µM
- TGI [33]: > 100 µM
- TGI [34]: 30.8 µM
- TGI [35]: > 100 µM
- TGI [36]: > 100 µM
- TGI [37]: > 100 µM
- TGI [38]: 32.9 µM
- TGI [39]: 64.4 µM
- TGI [59]: 27.3 µM
- TGI [40]: > 100 µM
- TGI [41]: > 100 µM
- TGI [42]: > 100 µM
- TGI [43]: > 100 µM
- TGI [44]: 42.8 µM
- TGI [45]: > 100 µM
- TGI [46]: > 100 µM
- TGI [47]: > 100 µM
- TGI [48]: 30.3 µM
- TGI [49]: > 100 µM
- TGI [50]: > 100 µM
- TGI [51]: > 100 µM
- TGI [52]: > 100 µM
- TGI [53]: > 100 µM
- TGI [54]: > 100 µM
- TGI [55]: > 100 µM
- TGI [56]: > 100 µM

Structure (SMILES): O=C(O)CSc1ccn(Cc2ccccc2)c1
- TGI [1]: > 100 µM
- TGI [2]: > 100 µM
- TGI [3]: > 100 µM
- TGI [4]: > 100 µM
- TGI [5]: > 100 µM
- TGI [6]: > 100 µM
- TGI [7]: > 100 µM
- TGI [8]: > 100 µM
- TGI [9]: > 100 µM
- TGI [10]: > 100 µM
- TGI [11]: > 100 µM
- TGI [12]: > 100 µM
- TGI [57]: > 100 µM
- TGI [13]: > 100 µM
- TGI [14]: > 100 µM
- TGI [58]: > 100 µM
- TGI [15]: > 100 µM
- TGI [16]: > 100 µM
- TGI [17]: > 100 µM
- TGI [18]: > 100 µM
- TGI [19]: > 100 µM
- TGI [20]: > 100 µM
- TGI [21]: > 100 µM
- TGI [22]: > 100 µM
- TGI [23]: > 100 µM
- TGI [24]: > 100 µM
- TGI [25]: > 100 µM
- TGI [26]: > 100 µM
- TGI [27]: > 100 µM
- TGI [28]: > 100 µM
- TGI [29]: > 100 µM
- TGI [30]: > 100 µM
- TGI [31]: > 100 µM
- TGI [32]: > 100 µM
- TGI [33]: > 100 µM
- TGI [34]: > 100 µM
- TGI [35]: > 100 µM
- TGI [36]: > 100 µM
- TGI [37]: > 100 µM
- TGI [38]: > 100 µM
- TGI [39]: > 100 µM
- TGI [40]: > 100 µM
- TGI [41]: > 100 µM
- TGI [42]: > 100 µM
- TGI [43]: > 100 µM
- TGI [44]: > 100 µM
- TGI [45]: > 100 µM
- TGI [46]: > 100 µM
- TGI [47]: > 100 µM
- TGI [48]: > 100 µM
- TGI [49]: > 100 µM
- TGI [50]: > 100 µM
- TGI [51]: > 100 µM
- TGI [52]: > 100 µM
- TGI [53]: > 100 µM
- TGI [54]: > 100 µM
- TGI [55]: > 100 µM
- TGI [56]: > 100 µM
